Experimental data taken from patent EP3820845B1, “NOVEL, NEW GENERATION INHIBITOR COMPOUNDS SPECIFIC TO GST P1 ENZYME” (HACETTEPE ÜNIVERSITESI, priority 2018, dated 2020).
Like-named read-outs stand apart in the source and are kept apart here.

Legend:
human-GST P1 (hGST P1) = human-GST P1 (hGST P1) (Homo sapiens, UniProt P09211); assay: Spectrophotometric GST P1 enzyme inhibition test (GSH/CDNB conjugation), IC50 determination; type: biochemical; conditions: spectrophotometric enzyme activity, ctapm1 concentrations between 0-100 µM; GraphPrism calculation; Figure 1
Chain of human-GST P1 (hGST P1) (P09211 2-210 limits assumed): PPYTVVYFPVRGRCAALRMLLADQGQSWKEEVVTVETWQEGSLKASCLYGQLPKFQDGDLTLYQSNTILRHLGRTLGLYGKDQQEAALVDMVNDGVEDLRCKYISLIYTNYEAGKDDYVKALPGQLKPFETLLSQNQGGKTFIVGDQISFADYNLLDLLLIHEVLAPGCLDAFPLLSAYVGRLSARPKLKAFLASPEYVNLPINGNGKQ
Method: Pure human-GST P1 (hGST P1) enzyme has been used as target protein in enzyme inhibition tests. "Ethacrynic acid" has been used as the model inhibitor compound. Ctapm1 (compound 1) compound which is a tetrahydrocarbazole derivative has been used as the basic precursor inhibitor for compounds that are designed, synthesized and are planned to be synthesized with advanced modifications.
The enzyme activity was determined over the activity of GST P1 enzyme which conjugated GSH and 1-chloro-2,4-dinitrobenzene (CDNB). The test medium was prepared to include 100 mM sodium phosphate buffer (pH 6.5) comprising 1 mM EDTA, 1 mM GSH, 1 mM CDNB and 5% ethanol and the temperature of the medium was determined as 30°C. The formation of a conjugate (GS-DNB) was monitored for 1 minute over the absorbance increase at 340 nm wavelength. The specific activity was calculated using 0.0096 µM^-1 cm ^-1 absorption coefficient. […] [formula] ΔA: Absorbance change (A340/minute.ml) Vr: Reaction volume (ml) d: Dilution factor ε: Molar absorption coefficient (9,6 mM^-1, cm^-1) ℓ: Light path (0,524 cm for 1 cm microplate measurements for Standard spectrophotometry vessel, Ve: Volume added to the stock enzyme reaction medium (ml) […]
In order to determine IC50 values of compounds both the standard spectrophotometric method and the microplate kinetic reading method was used together. […]

GST P1 = GST P1 (Homo sapiens, UniProt P09211); assay: Enzyme kinetic analysis with GST P1 (GSH- and CDNB-dependent Michaelis-Menten / Lineweaver-Burk), Ki inhibition constants; type: biochemical; conditions: Figure 2
Chain of GST P1 (P09211 2-210 limits assumed): as above
Method: Figure 1. IC50 dose(Log)-inhibition graph of the spectrophotometric enzyme activity of GST P1 at concentrations of the ctapm1 compound between 0-100 µM. Figure 2. kinetic analysis results of ctapm1 compound with GST P1. A and C are the GSH and CDNB dependent Michaelis-Menten graphic of the ctapm1 compound and B and D are the GSH and CDNB dependent Lineweaver-Burk graphs of the ctapm1 compound. Figure 3. The schematic view of the THC fragment, its load distribution and elemental features. 2-dimension schematic view (a) of "2,3,4,9-tetrahydro-1H-carbazole"in (shortly tetra hydro or THC) and the load distribution (b) of the THC fragment. […]
The enzyme activity was determined over the activity of GST P1 enzyme which conjugated GSH and 1-chloro-2,4-dinitrobenzene (CDNB). The test medium was prepared to include 100 mM sodium phosphate buffer (pH 6.5) comprising 1 mM EDTA, 1 mM GSH, 1 mM CDNB and 5% ethanol and the temperature of the medium was determined as 30°C. The formation of a conjugate (GS-DNB) was monitored for 1 minute over the absorbance increase at 340 nm wavelength. The specific activity was calculated using 0.0096 µM^-1 cm ^-1 absorption coefficient. […]

IC50 (human-GST P1 (hGST P1)): 1.07 µM
Ki (GST P1; competitive type, read-out: Ki inhibition constant against CDNB): 1.7 µM
Ki (GST P1; non-competitive type, read-out: Ki inhibition constant against GSH): 1.74 µM
Compound: S=c1[nH]nc(C2CCc3[nH]c4ccccc4c3C2)[nH]1 (stereo not drawn) [Compound 1, 3-(2,3,4,9-tetrahydro-1H-carbazole-3-yl)-1H-1,2,4-triazole-5(4H)-thione]
